From US20170156335A1, “SYSTEMS AND METHODS FOR RELEASING CHLORINE DIOXIDE” (priority 2014, published 2017)

System: Raoultella (Klebsiella) terrigena (R. terrigena, ATCC 33257)
Experiment: Anti-microbial activity test (AMA) in water bottles vs Raoultella terrigena
Format: cell-based
Conditions: AWT018; without SC

Compound: CCOC(C)=O [EtOAc, Ethyl acetate]
- antimicrobial potential of formulation additives: no antimicrobial potential
